Assay results from patent US9718788B2, “Heteroaryl compounds useful as inhibitors of E1 activating enzymes” (MILLENNIUM PHARMACEUTICALS, INC., priority 2006, dated 2017).

Target: T1, recombinant human NAE enzyme (Homo sapiens, UniProt Q8TBC4)
T1 construct: His (N); made in house; host or cells: Sf9 insect cells (baculovirus, Bac-to-Bac)
T1 sequence (Q8TBC4 1-463): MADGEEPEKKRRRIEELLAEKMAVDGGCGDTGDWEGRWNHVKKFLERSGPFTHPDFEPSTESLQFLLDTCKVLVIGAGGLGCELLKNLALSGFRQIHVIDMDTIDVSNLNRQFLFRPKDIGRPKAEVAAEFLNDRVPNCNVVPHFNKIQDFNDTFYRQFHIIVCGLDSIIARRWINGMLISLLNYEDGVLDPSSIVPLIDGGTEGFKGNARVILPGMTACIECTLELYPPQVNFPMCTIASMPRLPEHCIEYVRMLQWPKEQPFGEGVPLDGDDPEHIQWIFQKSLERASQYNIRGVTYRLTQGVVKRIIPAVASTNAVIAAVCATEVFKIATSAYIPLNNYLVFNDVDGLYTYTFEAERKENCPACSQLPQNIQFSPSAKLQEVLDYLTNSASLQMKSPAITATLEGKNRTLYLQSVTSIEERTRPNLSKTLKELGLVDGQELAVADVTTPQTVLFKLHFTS
T1 sequence (Q13564 1-534 partner): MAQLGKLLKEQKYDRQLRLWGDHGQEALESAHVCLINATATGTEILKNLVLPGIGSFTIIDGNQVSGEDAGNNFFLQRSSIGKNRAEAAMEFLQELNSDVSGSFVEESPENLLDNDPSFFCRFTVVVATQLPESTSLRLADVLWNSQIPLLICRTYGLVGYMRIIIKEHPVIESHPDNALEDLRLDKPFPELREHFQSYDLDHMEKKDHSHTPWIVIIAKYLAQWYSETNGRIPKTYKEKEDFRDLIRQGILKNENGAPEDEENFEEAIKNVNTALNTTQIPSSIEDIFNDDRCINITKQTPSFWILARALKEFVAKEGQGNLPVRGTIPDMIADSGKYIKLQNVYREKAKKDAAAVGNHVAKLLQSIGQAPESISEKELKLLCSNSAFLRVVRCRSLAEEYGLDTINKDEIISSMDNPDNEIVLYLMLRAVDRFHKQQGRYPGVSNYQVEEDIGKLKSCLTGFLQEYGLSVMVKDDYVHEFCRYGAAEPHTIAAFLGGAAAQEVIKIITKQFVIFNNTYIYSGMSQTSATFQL
Test: Nedd8-Activating Enzyme (NAE) HTRF Assay
Type: biochemical
Settings: 20 μM ATP
Procedure: Following manufacturer instructions, baculoviruses were generated with the Bac-to-Bac Expression System (Invitrogen) for the following proteins: untagged NAEα (APPBP1; NP_003896.1), N-terminally His-tagged NAEJ (UBE1C; NP_003959.3), untagged SAEα (SAE1; NP_005491.1), N-terminally His-tagged SAE3 (UBA2; NP_005490.1), N-terminally His-tagged murine UAE (UBE1X; NP_033483). NAEα/His-NAEβ and SAEα/His-SAEβ complexes were generated by co-infection of Sf9 cells, which were harvested after 48 hours. His-mUAE was generated by single infection of Sf9 cells and harvested after 72 hours. Expressed proteins were purified by affinity chromatography (Ni-NTA agarose, Qiagen) using standard buffers. Nedd8-Activating Enzyme (NAE) HTRF Assay. The NAE enzymatic reaction totaled 50 μL and contained 50 mM HEPES (pH 7.5), 0.05% BSA, 5 mM MgCl2, 20 μM ATP, 250 μM GSH, 0.01 μM Ubc12-GST, 0.075 μM Nedd8-Flag and 0.20 nM recombinant human NAE enzyme. The enzymatic reaction mixture, with and without compound inhibitor, was incubated at room temperature 24° C. for 105 minutes in a 384-well plate before termination with 25 μL of Stop/Detection buffer (0.1M HEPES pH 7.5, 0.05% Tween20, 20 mM EDTA, 410 mM KF, 0.53 nM Europium-Cryptate labeled monoclonal anti-FLAG M2 antibody (CisBio International) and 8.125 μg/mL PHYCOLINK goat anti-GST allophycocyanin (XL-APC) antibody (Prozyme)). After incubation for 1 hour at 24° C., quantification of the FRET was performed on the Analyst™ HT 96.384 (Molecular Devices).

Row | IC50 (bound given in nM) [nM] | IC50 (bound given in μM) [nM] | Structure (SMILES)
1 | ≤ 500 |  | CC(C)(C)c1nc2c(N[C@@H]3C[C@@H](COS(N)(=O)=O)[C@@H](O)C3)ncnc2[nH]1 [Compound I-131, {(1S,2S,4R)-4-[(8-tert-butyl-9H-purin-6-yl)amino]-2-hydroxycyclopentyl}methyl sulfamate]
2 | > 500 | < 10000 | NS(=O)(=O)OC[C@@H]1C[C@@H](Nc2cc(N[C@H]3CCc4ccccc43)nc(=O)[nH]2)C[C@@H]1O [Compound I-54, [(1S,2S,4R)-4-({6-[(1S)-2,3-dihydro-1H-inden-1-ylamino]-2-oxo-2,3-dihydropyrimidin-4-yl}amino)-2-hydroxycyclopentyl]methyl sulfamate]
3 | ≤ 500 |  | NS(=O)(=O)OC[C@H]1C[C@@H](Nc2cc(N[C@@H]3CCc4ccccc43)ncn2)[C@H](O)[C@@H]1O [Compound I-8, [(1R,2R,3S,4R)-4-({6-[(1R)-2,3-dihydro-1H-inden-1-ylamino]pyrimidin-4-yl}-amino)-2,3-dihydroxycyclopentyl]methyl sulfamate]
4 | > 500 | < 10000 | OC[C@@H]1C[C@@H](Nc2ncnc3[nH]c(-c4cccc5c4CCCC5)nc23)C[C@@H]1O [Compound I-110, (1S,2S,4R)-2-(hydroxymethyl)-4-{[8-(5,6,7,8-tetrahydronaphthalen-1-yl)-9H-purin-6-yl]-amino}cyclopentanol]
5 | > 500 | < 10000 | NS(=O)(=O)OC[C@@H]1C[C@@H](Oc2cc(NC3CCCC3)ncn2)C[C@@H]1O [Compound I-127, ((1S,2S,4R)-4-{[6-(cyclopentylamino)pyrimidin-4-yl]oxy}-2-hydroxycyclopentyl)methyl sulfamate]
6 |  | > 10000 | NS(=O)(=O)OC[C@@H]1C[C@@H](Oc2cc(OCc3ccc(Cl)cc3)ncn2)C[C@@H]1O [Compound I-89, [(1S,2S,4R)-4-({6-[(4-chlorobenzyl)oxy]pyrimidin-4-yl}oxy)-2-hydroxycyclopentyl]methyl sulfamate]
7 | > 500 | < 10000 | NS(=O)(=O)OC[C@H]1C[C@@H](Nc2cc(N[C@H]3CCC[C@@H]3OCc3ccccc3)ncn2)[C@H](O)[C@@H]1O [Compound I-92, {(1R,2R,3S,4R)-4-[(6-{[(1S,2S)-2-(benzyloxy)cyclopentyl]amino}pyrimidin-4-yl)amino]-2,3-dihydroxycyclopentyl}methyl sulfamate]
8 | ≤ 500 |  | NS(=O)(=O)OC[C@@H]1C[C@@H](Nc2ncnc3nc(-c4cccc5c4OCC5)[nH]c23)C[C@@H]1O [Compound I-117, ((1S,2S,4R)-4-{[8-(2,3-dihydro-1-benzofuran-7-yl)-7H-purin-6-yl]amino}-2-hydroxycyclopentyl)methyl sulfamate]
9 | ≤ 500 |  | NS(=O)(=O)OC[C@@H]1C[C@@H](Oc2ncnc3nc(-c4ccc(N5CCCC5)c5ccccc45)[nH]c23)C[C@@H]1O [Compound I-139, ((1S,2S,4R)-2-hydroxy-4-{[8-(4-pyrrolidin-1-yl-1-naphthyl)-7H-purin-6-yl]oxy}cyclopentyl)methyl sulfamate]
10 | ≤ 500 |  | CC1(C)C[C@H](Nc2nccc(N[C@@H]3C[C@H](COS(N)(=O)=O)[C@@H](O)[C@H]3O)n2)c2ccccc21 [Compound I-15, {(1R,2R,3S,4R)-4-[(2-{[(1S)-3,3-dimethyl-2,3-dihydro-1H-inden-1-yl]amino}-pyrimidin-4-yl)amino]-2,3-dihydroxycyclopentyl}methyl sulfamate]
11 | ≤ 500 |  | CO[C@H]1Cc2ccccc2[C@H]1Nc1ncnc(N[C@@H]2C[C@@H](COS(N)(=O)=O)[C@@H](O)C2)n1 [Compound I-125, {(1S,2S,4R)-2-hydroxy-4-[(4-{[(1R,2S)-2-methoxy-2,3-dihydro-1H-inden-1-yl]amino}-1,3,5-triazin-2-yl)amino]cyclopentyl}methyl sulfamate]
12 | > 500 | < 10000 | Cn1c(-c2ccccc2)nc2ncnc(N[C@@H]3C[C@@H](COS(N)(=O)=O)[C@@H](O)C3)c21 [Compound I-36, {(1S,2S,4R)-2-hydroxy-4-[(7-methyl-8-phenyl-7H-purin-6-yl)-amino]cyclopentyl}methyl sulfamate]
